Assay: Gamma scintigraphy studies of stavudine absorption
Format: in vivo
Description: It has been found in gamma scintigraphy studies that stavudine is well absorbed in the upper intestine. The absorption in the colon is approximately one half that of the small intestine. The optimal formulation would be designed to release approximately 40% of the stavudine in four hours and the remainder over the next twelve to twenty hours. A 100 mg. extended dosage form of stavudine, therefore, would be designed to have the same bioavailability as the commercial 40 mg. immediate release capsules given twice daily. […] A problem in the formulation of a suitable extended dosage form of stavudine is its sensitivity to moisture that causes it to hydrolyze, primarily into thymine. This moisture sensitivity has not been a problem with the commercial non-sustained release dosage form of stavudine because it is a dry granulation that is filled into hard gelatin capsules. However, sustained release dosage forms conventionally require different compounding procedures typically including a granulation step involving an aqueous medium. […] In accordance with the present invention, a method has been found whereby stavudine can be successfully compounded into an extended release formulation utilizing conventional techniques without appreciable loss of potency due to hydrolysis.

Cc1cn([C@H]2C=C[C@@H](CO)O2)c(=O)[nH]c1=O [stavudine, 3′-deoxy-2′,3′-didehydrothymidine]
absorption in the colon relative to that of the small intestine: approximately one half | absorption in the upper intestine: well absorbed
